Earlier results as cited in patent US20030109508A1, “Methods for treating dry eye” (Alcon, Inc., priority 2001, published 2003).

Test system: human conjunctival epithelial cells
Conditions: background statement, no data given

In the case of `CCCCC[C@H](O)/C=C/C=C\C/C=C\C/C=C\CCCC(=O)O` [15-HETE], the “secretion of mucin-1 (MUC-1)” value is listed as “increase the secretion of mucin-1 (MUC-1)”.
